Test results reported in ChEMBL document CHEMBL1127702, “A proposed model of bradykinin bound to the rat B2 receptor and its utility for drug design” (J Med Chem, 1994).
Where a SMILES comes first, the peptide text is derived from it. [ ]: non-standard residue; d: D form. Oic = O=C(O)[C@@H]1C[C@@H]2CCCC[C@@H]2N1; Hyp = O=C(O)[C@@H]1C[C@@H](O)CN1; dTic = O=C(O)[C@H]1Cc2ccccc2CN1

How the values were obtained:
[1] = biological target: T1, B2 bradykinin receptor (Cavia porcellus, UniProt O70526); assay: Binding affinity towards bradykinin receptor B2 using [3H]bradykinin
T1 sequence (O70526 whole entry): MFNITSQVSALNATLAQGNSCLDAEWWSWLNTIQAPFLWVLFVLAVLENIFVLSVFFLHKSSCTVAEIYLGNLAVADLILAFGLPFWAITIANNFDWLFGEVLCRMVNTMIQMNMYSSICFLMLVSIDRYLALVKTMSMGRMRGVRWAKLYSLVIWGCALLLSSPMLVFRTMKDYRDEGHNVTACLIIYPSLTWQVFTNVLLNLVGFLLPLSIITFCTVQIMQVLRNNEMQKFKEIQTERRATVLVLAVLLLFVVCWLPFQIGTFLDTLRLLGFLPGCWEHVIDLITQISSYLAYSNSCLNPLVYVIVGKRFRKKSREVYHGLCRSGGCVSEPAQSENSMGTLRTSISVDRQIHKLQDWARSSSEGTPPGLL

[2] = organism: Cavia porcellus; assay: Compound was tested for bradykinin-induced contractions in guinea pig ileum; assay type: functional; conditions: read-out: pA2 (converted)

Ki [1]: 110 pM
Compound: NC(N)=NCCC[C@@H](N)C(=O)N[C@@H](CCCN=C(N)N)C(=O)N1CCC[C@H]1C(=O)N1C[C@H](O)C[C@H]1C(=O)NCC(=O)N[C@@H](Cc1ccccc1)C(=O)N[C@@H](CO)C(=O)N1Cc2ccccc2C[C@@H]1C(=O)N1[C@H](C(=O)N[C@@H](CCCN=C(N)N)C(=O)O)C[C@@H]2CCCC[C@@H]21 (H-[dR]RP[Hyp]GFS[dTic][Oic]R-OH)
Kb [2]: 1580 pM
